In patent US20100144855A1, “APPLICATION OF SEDOISOPROSAN FOR PREPARATION OF MEDICINE FOR TREATMENT OF HUMAN HBeAg POSITIVE CHRONIC HEPATITIS B” (priority 2008, published 2010):

Experiment: clinical trial, safety in HBeAg positive chronic hepatitis B patients
Type: in vivo, human
Text: The clinical trial protocol was designed according to the randomized, double-blind and controlled principle. The clinical efficacy and the safety of sedoisoprosan for therapy on human HBeAg positive chronic hepatitis B is defined according to the changes of vivo HBV-DNA level, ALT level, vital signs, blood routine indexes, blood biochemical indexes and thyroid function indexes before and after administration and the incidence of adverse events.
Patients enrolled in the clinical trials were randomly divided into four groups, i.e. negative control group (800 mg mannite), low dose group (200 mg sedoisoprosan with 600 mg mannite), median dose group (400 mg sedoisoprosan with 400 mg mannite) and high dose group (800 mg sedoisoprosan) respectively. Each patient was assigned with a CRF No. which was randomly generated by computer.
Baseline assessment was performed on the day of the first administration, which included medical examination, hematological examination, blood biochemical examination, thyroid function examination, ALT examination and quantitative detection of HBV-DNA. The medical examination included the examination of stature, avoirdupois, blood pressure and pulse rate. The hematological examination included the leucocyte, neutrophil, erythrocyte, platelet and haemoglobin counts, and the prothrombin time. The blood biochemical examination included the examination of serum potassium, sodium, GOT, total bilirubin, AKP, total protein, albumin, total cholesterol, triglyceride, urea nitrogen, creatinine and glucose.
The patients were followed up at the 1st, 2nd, 4th, 8th and 12th week of the treatment. The blood biochemical examination and the quantitative detection of HBV-DNA was performed at the 2nd, 4th, 8th and 12th week of the treatment, and the adverse events were recorded at the same time. The thyroid function examination was performed at the 12th week of the treatment.
The safety indexes included vital signs, clinical laboratory parameters, adverse events, important adverse events, serious adverse events and the early termination cases. The safety analysis should be performed on patients who have received at least once administration and were evaluated after the administration.
The detection of vital signs and laboratory parameters and the recording for adverse events was performed at baseline and at the 1st, 2nd, 4th, 8th and 12th week of the treatment. The vital signs and laboratory parameters were evaluated by the changes thereof before and after the treatment. The incidence of adverse events was figured by the proportion of patients having adverse events during the treatment, and the evaluation of adverse events included the kinds, grades and the relationship to the drugs. The adverse events were recorded by descriptive statistics, and comparison of the incidence thereof between the four groups was performed by Fisher probabilistic test.

[1] = median dose group, 400 mg, the 12th week
[2] = patient CRF 3, high dose group (800 mg)
[3] = patient CRF 7, low dose group (200 mg)
[4] = patient CRF 10, low dose group (200 mg)
[5] = patient CRF 14, low dose group (200 mg)
[6] = patient CRF 15, median dose group (400 mg)
[7] = patient CRF 17, low dose group (200 mg)
[8] = patient CRF 19, high dose group (800 mg)
[9] = patient CRF 20, median dose group (400 mg)
[10] = patient CRF20, median dose group, after 8 weeks' treatment
[11] = patient CRF 32, median dose group (400 mg)
[12] = patient CRF 60, median dose group (400 mg)

CC1(C)OC2C3COC(CO)(O3)C(O)C2O1 (stereo not drawn) [sedoisoprosan, isopropylidene sedoheptulosan]
Avoirdupois [1]: 59.88 ± 8.18 kg
Diastolic Pressure [1]: 74.77 ± 5.15 mmHg
Pulse rate [1]: 78.00 ± 4.53 times/min
Respiratory frequency [1]: 19.31 ± 2.66 times/min
Systolic Pressure [1]: 115.69 ± 9.67 mmHg
reason for early termination (one patient, low dose group, after 6 weeks' treatment): progressive increasing ALT level
Adverse event Liver Dysfunction: Outcome [2]: Remission Without Sequela
Adverse event Liver Dysfunction: Relation to the study drug [2]: Unrelated
Adverse event Liver Dysfunction: Severity [2]: Light
Adverse event Urinary Tract Infection: Outcome [3]: Remission Without Sequela
Adverse event Urinary Tract Infection: Relation to the study drug [3]: Unrelated
Adverse event Urinary Tract Infection: Severity [3]: Light
Adverse event Progressive Increase in ALT Level: Outcome [4]: Reexamination of Liver Function After A Week
Adverse event Progressive Increase in ALT Level: Relation to the study drug [4]: Maybe Unrelated
Adverse event Progressive Increase in ALT Level: Severity [4]: Middle
Adverse event Alopecia: Outcome [5]: No Change
Adverse event Alopecia: Relation to the study drug [5]: Maybe Related
Adverse event Alopecia: Severity [5]: Light
Adverse event Gingival Bleeding: Outcome [5]: Remission Without Sequela
Adverse event Gingival Bleeding: Relation to the study drug [5]: Maybe Unrelated
Adverse event Gingival Bleeding: Severity [5]: Light
Adverse event Liver Dysfunction: Outcome [5]: Remission Without Sequela
Adverse event Liver Dysfunction: Relation to the study drug [5]: Maybe Unrelated
Adverse event Liver Dysfunction: Severity [5]: Light
Adverse event Pharyngoxerosis: Outcome [5]: Remission Without Sequela
Adverse event Pharyngoxerosis: Relation to the study drug [5]: Unrelated
Adverse event Pharyngoxerosis: Severity [5]: Light
Adverse event Alopecia: Outcome [6]: No Change
Adverse event Alopecia: Relation to the study drug [6]: Maybe Related
Adverse event Alopecia: Severity [6]: Light
Adverse event Emesis: Outcome [6]: Remission Without Sequela
Adverse event Emesis: Relation to the study drug [6]: Maybe Unrelated
Adverse event Emesis: Severity [6]: Light
Adverse event Gingival Bleeding: Outcome [6]: Remission Without Sequela
Adverse event Gingival Bleeding: Relation to the study drug [6]: Maybe Unrelated
Adverse event Gingival Bleeding: Severity [6]: Light
Adverse event Increase in ALT Level: Outcome [6]: Remission Without Sequela
Adverse event Increase in ALT Level: Relation to the study drug [6]: Maybe Unrelated
Adverse event Increase in ALT Level: Severity [6]: Light
Adverse event Alopecia: Outcome [7]: No Change
Adverse event Alopecia: Relation to the study drug [7]: Maybe Related
Adverse event Alopecia: Severity [7]: Light
Adverse event ALT 74 U/L, TBil 133.1: Outcome [8]: Remission Without Sequela
Adverse event ALT 74 U/L, TBil 133.1: Relation to the study drug [8]: Maybe Related
Adverse event ALT 74 U/L, TBil 133.1: Severity [8]: Middle
Adverse event Aggravated Muscle Ache: Outcome [8]: Remission Without Sequela
Adverse event Aggravated Muscle Ache: Relation to the study drug [8]: Maybe Related
Adverse event Aggravated Muscle Ache: Severity [8]: Middle
Adverse event Costalgia And Notalgia: Outcome [8]: Remission Without Sequela
Adverse event Costalgia And Notalgia: Relation to the study drug [8]: Maybe Related
Adverse event Costalgia And Notalgia: Severity [8]: Middle
Adverse event Generalized Muscle Ache: Outcome [8]: Remission Without Sequela
Adverse event Generalized Muscle Ache: Relation to the study drug [8]: Maybe Related
Adverse event Generalized Muscle Ache: Severity [8]: Light
Adverse event Acid Regurgitation: Outcome [9]: Remission Without Sequela
Adverse event Acid Regurgitation: Relation to the study drug [9]: Maybe Related
Adverse event Acid Regurgitation: Severity [9]: Light
Adverse event Aggravated Digestive Symptom: Outcome [9]: Remission Without Sequela
Adverse event Aggravated Digestive Symptom: Relation to the study drug [9]: Related
Adverse event Aggravated Digestive Symptom: Severity [9]: Middle
Adverse event Dark Urine: Outcome [9]: Remission Without Sequela
Adverse event Dark Urine: Relation to the study drug [9]: Related
Adverse event Dark Urine: Severity [9]: Middle
Adverse event Epigastric Discomfort: Outcome [9]: Remission Without Sequela
Adverse event Epigastric Discomfort: Relation to the study drug [9]: Related
Adverse event Epigastric Discomfort: Severity [9]: Middle
Adverse event Hypodynamia: Outcome [9]: Remission Without Sequela
Adverse event Hypodynamia: Relation to the study drug [9]: Related
Adverse event Hypodynamia: Severity [9]: Middle
Adverse event Icterus: Outcome [9]: Remission Without Sequela
Adverse event Icterus: Relation to the study drug [9]: Related
Adverse event Icterus: Severity [9]: Middle
ALT level at early termination [10]: 343 U/L
AST level at early termination [10]: 517 U/L
TBil level at early termination [10]: 68.1 µmol/L
Adverse event Toothache And Periodontitis: Outcome [11]: Remission Without Sequela
Adverse event Toothache And Periodontitis: Relation to the study drug [11]: Unrelated
Adverse event Toothache And Periodontitis: Severity [11]: Middle
Adverse event Upper Respiratory Tract Infection: Outcome [12]: Remission Without Sequela
Adverse event Upper Respiratory Tract Infection: Relation to the study drug [12]: Unrelated
Adverse event Upper Respiratory Tract Infection: Severity [12]: Middle
